In patent US6864093B1, “Method of identifying and treating invasive carcinomas” (University of Central Florida, priority 2000, dated 2005):

Assays:
Assay type in all cases: cell-based, human
[1] = test system: prostasin gene promoter (MDA-MB-435s cells); assay: demethylation of prostasin gene promoter, genomic Southern blot; conditions: 500 nM, 8 days
Excerpt: (§1) High molecular weight genomic DNA was isolated from various cell lines as described in Chai, K X, Ward, D C, Chao, J, et al Molecular Clonings Sequence Analysis and Chromosomal Localization of the Human Protease Inhibitor 4 (kallistatin) gene (P14) Genomics 1994; 23:370-8. Genomic DNA frm each cell line was digested with the following restriction enzyme combinations:Xho I/BamH I (X/B), Xho I/BamH I/Hha (X/B/Hh), Xho I/BamH I/Aci I (X/B/A), Xho I/Bam H I.Bsa I (X/B/Bs),Xho I/Bam H I/Msp I(X/B/M) or Xho I/Bam H I/Hpa II(X/B/H) using 10 μg of DNA per digestion combination. The X/B cutting sites flank the CpG sies be to be investigated for differential methylation by the methylation-sensitive restriction endonucleases. The digests were resolved in a 0.8% agarose gel and analyzed by Southern blot hybridization as described in Chai, K X, Ward, D C, Chao, J et al. A nick translated prostasin promoter probe (bases 703-1,649) of the prostasin gene sequence, Genbank accession number U33446) was used for the hybridization. The base numbering of the prostasin gene sequence was described in Yu et al. […]

[2] = test system: prostasin gene promoter (PC-3 cells); assay: as above; conditions: PC-3, 8 days
Excerpt: as §1

[3] = test system: prostasin gene promoter (DU-145 cells); assay: as above; conditions: DU-145, 8 days
Excerpt: as §1

[4] = test system: prostasin mRNA (MDA-MB-231 cells); assay: reactivation of prostasin expression, RT-PCR/Southern blot; conditions: MDA-MB-231, 500 nM 5-aza-2′-dC 24 hr followed by 95% ethanol (solvent for TSA)
Protocol: (§2) Cells grown to 80% confluence (in […] tissue culture dish) were lysed directly with 1 ml of the Trizol Reagent (life Technologies) and RNA was isolated according to the manufacturer's protocol. The human prostasin-specific RT-PCR/Southern blot analysis was performed as described in Yu, J X, and Chao,J Molecular Cloning, tissue-specific expression and cellular localization of human prostasin mRNA. J Biol Chem 1995; 270:12483-4. One microgram of total RNA was used in the RT-PCR with 2 human prostasin gene-specific oligonucleotide primers, and a Southern blot of the resolved RT-PCR samples was probed with a third prostasin gene-specific oligonucleotide, detecting an amplified 232 bp fragment. A co-amplification of the β-actin mRNA for control of RNA quality and quantity was performed as described in Chen Hodge and Guarda, et al.
(§3) For demethylation of prostasin gene promoter, MDA-MB-231 and MDA-MB-435s cells were seeded in 100 mm dishes at an initial density of 50% confluence and cultured in the presence of 500 nM 5-aza-2′-deoxycytidine (5-aza-2′dC; Sigma-Aldrich) for 8 days with renewal of medium and 5-aza-2′-dC performed at 2 day intervals. Genomic DNA was then isolated for Southern blot analysis as described. For reactivation of prostasin expression, MDA-MB-231 and MDA-MB-435s cells were seeded in 60 mm dishes at 80% confluence and cultured in the presence of 500 nM 5-aza-2′-dC for 24 hr, and were then treated for an additional 24 hr with either 1 μM trichostatin A (TSA; Sigma Aldrich) or an equal volume of 95% ethanol used to dissolve TSA. For measuring time-dependence of prostatin gene reactivation, cells were treated as described above but were harvested at 6 or 12 hr after the addition of TSA. RNA was isolated for prostasin-specifric RT-PCR/Southern blot analysis as described. The MCF-7 and the MDA-MB-453 cell ines were subjected tot the same 5-aza-2′-dC/TSA treatment and prostasin RT-PCR Southern blot analysis procedures.

[5] = test system: prostasin mRNA (MDA-MB-435s cells); assay: as above
Protocol: as §2, §3

[6] = test system: prostasin mRNA (PC-3 cells); assay: as above; conditions: PC-3, after 8 days 5-aza-2′-dC
Protocol: as §2
(§4) Du-145 and […] an additional 24 hours with either 1 μM trichostatin A (TSA, Sigma-Aldrich Co.) or an equal volume of 95% ethanol used to dissolve TSA. TNA was isolated for prostasin-specific RT-PCR/Southern blot analysis as described in example 1.

[7] = test system: prostasin mRNA (DU-145 cells); assay: as above; conditions: DU-145, after 8 days 5-aza-2′-dC
Protocol: as §2, §4

SMILES: Nc1ncn([C@H]2C[C@H](O)[C@@H](CO)O2)c(=O)n1 [5-aza-2′-dC, 5-aza-2′-deoxycytidine]
- demethylation of prostasin promoter-exon 1 region [1]: significant level of demethylation
- demethylation of prostasin promoter [2]: significant level of demethylation
- demethylation of prostasin promoter [3]: significant level of demethylation
- prostasin mRNA re-expression [4]: did not result in prostasin mRNA re-expression
- prostasin mRNA re-expression ([5]; 500 nM 5-aza-2′-dC 24 hr followed by 95% ethanol (solvent for TSA)): did not result in prostasin mRNA re-expression
- prostasin mRNA expression ([5]; after 8-day 5-aza-2′-dC treatment): failed to detect prostasin mRNA expression
- prostasin mRNA expression [6]: no prostasin mRNA expression was detected
- prostasin mRNA expression [7]: no prostasin mRNA expression was detected
